We go through 4 molecules from patent US20160250121A1, “USE OF MONO ORNITHINE KETOGLUTARATE (MOKG)” (L'OREAL, priority 2013, published 2016).

The test system of this assay is Hair follicles. As to the kind of experiment: Activity of actives on hair follicle growth (cultured scalp hair follicles, elongation by image analysis). Particulars: for Growth: average elongation as percentage of control group (=100), 6 days of cultivation (5 of treatment). Type of assay: cell-based. As to the method:
Hair follicles were taken from a single donor's scalp sample and transferred in sterile 24 well plates to be cultivated by using a modified Williams' Medium E. Cultivation took place for six days, while the experimental treatment of the follicles started 24 hours from the beginning of the cultivation. Hair follicles were selected for the experiments after 18 h of cultivation. Only those follicles showing a good vital stage and a growth of not less than 0.2 mm were considered suitable to be maintained in culture. All experimental groups and the control were prepared comprising 12 to 18 follicles, plated in 24-well plates at a density of 3 hair follicles/well. The hair follicles showing evident signs of sufferance during the culture for reasons not dependent on the experimental treatment were excluded from the final analysis.
The treatments consisted of mOKG concentrations varying from 0.001 to 0.1% b.w.
The growth performances observed in the treated hair follicles were compared to a control group cultured in the same culture medium free from OMG.
The experiment was terminated after 6 days of cultivation (5 of treatment). The growth of the hair follicles was studied by microphotography and subsequently determined by image analysis.
The average elongation detected in the experimental groups was expressed as percentage value of the growth performed by the control group. The statistical significance of the effects produced by the treatments was evaluated by means of analysis of variance (ANOVA) according the Duncan's method.

[1] abbreviates: Conc. 0.001% b.w. in culture medium.
The mark [2] stands for this setting: Conc. 0.01% b.w. in culture medium.
[3] abbreviates: Conc. 0.1% b.w. in culture medium.

Molecule `Cl.NCCC[C@H](N)C(=O)O` [Ornithine hydrochloride] yielded a Growth under setting [1] of 100%, a Growth under setting [2] of 102% and a Growth under setting [3] of 106%.
For Di Ornithine Ketoglutarate, the Growth under setting [1] stood at 101%, the Growth under setting [2] stood at 107% and the Growth under setting [3] is recorded as 116%.
For `O=C(O)CCC(=O)C(=O)O` [Alpha-ketoglutarate], in that order: 101%, 103% and 104%.
In the case of `NCCC[C@H](N)C(=O)O.O=C(O)CCC(=O)C(=O)O` [Mono Ornithine Ketoglutarate, Mono-Ornithine (alpha-) ketoglutarate], the Growth is on record as 112% under setting [1], 120% under setting [2] and 122% under setting [3]. The “Factor between effective concentrations (mOKG 0.001% b.w. vs OKG 0.1% b.w.)” value (mOKG significantly effective at 0.001% b.w. as OKG at 0.1% b.w.) was determined as 100.
